The results in this text go back to patent publication US20250230193A1, “CYCLIC COMPOUND HAVING SELECTIVE KRAS INHIBITORY EFFECT ON HRAS AND NRAS” (CHUGAI SEIYAKU KABUSHIKI KAISHA, priority 2022, published 2025).

Where a SMILES comes first, the peptide text is derived from it. Bridges are numbered along the chain shown (N, C = ends). [ ]: non-standard residue; d: D form. hPhe(3-Cl-4-CF3) = N[C@@H](CCc1ccc(C(F)(F)F)c(Cl)c1)C(=O)O; NPrPhe(4-CF3) = CCCN[C@@H](Cc1ccc(C(F)(F)F)cc1)C(=O)O; NMeGly(cPent) = CN[C@H](C(=O)O)C1CCCC1; NMeD = CN[C@@H](CC(=O)O)C(=O)O; NMeL = CN[C@@H](CC(C)C)C(=O)O; Ac4c = NC1(C(=O)O)CCC1; Sar = CNCC(=O)O

In experiment [1] the target is GDP-bound NRAS wild-type protein (Homo sapiens, UniProt P01111). The experiment can be described thus: Binding to NRAS by surface plasmon resonance (SPR), Single Cycle Kinetics. (SPR reads the build-up and loss of mass on a sensor chip optically.)
Experiment [2] concerns the target GDP-bound HRAS wild-type protein (Homo sapiens, UniProt P01112). The experiment can be described thus: Binding to HRAS by surface plasmon resonance (SPR), Single Cycle Kinetics.
The mark [3] stands for this setting: SPR, GDP-bound NRAS wild-type vs GDP-bound KRAS wild-type.
The mark [4] stands for this setting: SPR, GDP-bound HRAS wild-type vs GDP-bound KRAS wild-type.
Where [5] appears, read: KD ratio, GDP-bound NRAS wild-type vs GDP-bound KRAS wild-type, SPR.
The mark [6] stands for this setting: KD ratio, GDP-bound HRAS wild-type vs GDP-bound KRAS wild-type, SPR.

Chain of GDP-bound NRAS wild-type protein (P01111 whole entry): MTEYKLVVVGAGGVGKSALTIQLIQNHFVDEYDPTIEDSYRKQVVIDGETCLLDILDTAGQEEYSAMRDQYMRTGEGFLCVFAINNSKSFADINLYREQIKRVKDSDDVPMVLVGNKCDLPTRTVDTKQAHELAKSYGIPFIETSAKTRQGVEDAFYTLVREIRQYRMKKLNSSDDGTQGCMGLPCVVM
Chain of GDP-bound HRAS wild-type protein (P01112 whole entry): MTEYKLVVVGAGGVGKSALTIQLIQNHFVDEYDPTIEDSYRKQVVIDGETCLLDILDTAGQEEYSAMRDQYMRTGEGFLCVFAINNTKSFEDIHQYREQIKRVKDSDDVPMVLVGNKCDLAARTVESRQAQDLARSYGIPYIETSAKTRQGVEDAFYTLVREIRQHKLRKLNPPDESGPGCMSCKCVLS

As to `CCCN1C(=O)CN(C)C(=O)CNC(=O)[C@H]([C@@H](C)CC)NC(=O)[C@H](CC(C)C)N(C)C(=O)C[C@@H](C(=O)N(C)C)N(C)C(=O)[C@H](C2CCCC2)N(C)C(=O)C2(CCC2)NC(=O)[C@@H]2CCCN2C(=O)[C@H](CCc2ccc(C(F)(F)F)c(Cl)c2)NC(=O)CN(C)C(=O)[C@@H]1Cc1ccc(C(F)(F)F)cc1` [PP0418] ([NMeL]IG[Sar][NPrPhe(4-CF3)][Sar][hPhe(3-Cl-4-CF3)]P[Ac4c][NMeGly(cPent)][NMeD]-NMe2; lactam N-11), the “NRAS/KRAS (ratio of KD value with respect to GDP-bound NRAS wild-type protein to KD value with respect to KRAS)” value in experiment [1] (SPR) is “B (a compound having 3 or more and less than 10 is denoted as B)”. For the same molecule, the “HRAS/KRAS (ratio of KD value with respect to GDP-bound HRAS wild-type protein to KD value with respect to KRAS)” value in experiment [2] (SPR) is “C (A compound having a KD ratio of 0.1 or more and less than 3 is denoted as C)”.
Consider `CC[C@H](C)[C@@H]1NC(=O)[C@H](CC(C)C)N(C)C(=O)C[C@@H](C(=O)N2CCOCC2)N(C)C(=O)[C@H](CC(F)(F)F)N(C)C(=O)C2(CCCC2)NC(=O)[C@@H]2CCCN2C(=O)[C@H](CCc2cc(F)c(C(F)(F)F)c(F)c2)NC(=O)CN(C)C(=O)[C@H](Cc2ccc(C(F)(F)F)cc2)N2CCCC[C@@H](C2=O)N(C)C(=O)CN(C)C1=O` [PP0568], for which, in experiment [1] (SPR), the “NRAS/KRAS (ratio of KD value with respect to GDP-bound NRAS wild-type protein to KD value with respect to KRAS)” value is “B (a compound having 3 or more and less than 10 is denoted as B)”. In experiment [2] (SPR), the “HRAS/KRAS (ratio of KD value with respect to GDP-bound HRAS wild-type protein to KD value with respect to KRAS)” value is “B (a compound having 3 or more and less than 10 is denoted as B)”.
In the case of `CCC[C@H]1C(=O)N[C@@H](CC(C)C)C(=O)N(C2CC2)CC(=O)N(C)[C@H]2C/C=C\CCN(C2=O)[C@@H](Cc2ccc(C)cc2)C(=O)N(C)CC(=O)N[C@@H](CCc2cc(F)c(C(F)(F)F)c(F)c2)C(=O)N2C[C@H](OCC)C[C@H]2C(=O)NC2(CC(C)(C)C2)C(=O)N(C)[C@@H](C2CCCC2)C(=O)N(C)[C@H](C(=O)N(C)C)CC(=O)N1C` [PP2508], the “NRAS/KRAS (ratio of KD value with respect to NRAS to KD value with respect to KRAS)” value in experiment [1] (setting [3]) was “A (a compound having 10 or more and less than 20 is denoted as A)”. Also, the “HRAS/KRAS (ratio of KD value with respect to HRAS to KD value with respect to KRAS)” value in experiment [2] (setting [4]) was “B (a compound having 3 or more and less than 10 is denoted as B)”.
With `CCC[C@H]1C(=O)N[C@@H](C2CCCC2)C(=O)N(C)CC(=O)N(C)[C@H]2C/C=C\CCN(C2=O)[C@@H](Cc2ccc(C)cc2)C(=O)N(C)CC(=O)N[C@@H](CCc2ccc(C(F)(F)F)c(Cl)c2)C(=O)N2C[C@H](OCC)C[C@H]2C(=O)NC2(CC(C)(C)C2)C(=O)N(C)[C@@H](CC(C)(C)C)C(=O)N(C)[C@H](C(=O)N(C)C)CC(=O)N1C` [PP2196], the “NRAS/KRAS (ratio of KD value with respect to NRAS to KD value with respect to KRAS)” value in experiment [1] (setting [3]) is “A (a compound having 10 or more and less than 20 is denoted as A)”. The “HRAS/KRAS (ratio of KD value with respect to HRAS to KD value with respect to KRAS)” value in experiment [2] (setting [4]) was “B (a compound having 3 or more and less than 10 is denoted as B)”.
Consider `CCO[C@@H]1C[C@H]2C(=O)NC3(CC(C)(C)C3)C(=O)N(CC)[C@@H](C3CCCC3)C(=O)N(C)[C@H](C(=O)N(C)C)CC(=O)N(C)[C@@H](CC)C(=O)N[C@@H]([C@@H](C)CC)C(=O)N(C)CC(=O)N(C)[C@H]3C/C=C\CCN(C3=O)[C@@H](Cc3ccc(C(F)(F)F)cc3)C(=O)N(C)CC(=O)N[C@@H](CCc3cc(F)c(C(F)(F)F)c(F)c3)C(=O)N2C1` [PP1913], for which the “NRAS/KRAS (ratio of KD value for NRAS to KD value for KRAS)” value in experiment [1] (setting [5]) is “A (a compound having 10 or more and less than 20 is denoted as A)”. For the same molecule, the “HRAS/KRAS (ratio of KD value for HRAS to KD value for KRAS)” value in experiment [2] (setting [6]) is “A (a compound having 10 or more and less than 20 is denoted as A)”.
Turning to `CC[C@H](C)[C@@H]1NC(=O)[C@H](COC)N(C)C(=O)C[C@@H](C(=O)N2CCCCC2)N(C)C(=O)[C@H](C2CCCC2)N(C)C(=O)C2(CC(C)(C)C2)NC(=O)[C@@H]2C[C@@H](OC(C)C)CN2C(=O)[C@H](CCc2cc(F)c(C(F)(F)F)c(F)c2)NC(=O)CN(C)C(=O)[C@H](Cc2ccc(C(F)(F)F)cc2)N2CC/C=C\C[C@@H](C2=O)N(C)C(=O)CN(C2CC2)C1=O` [PP2667], the “NRAS/KRAS (ratio of KD value with respect to GDP-bound NRAS wild-type protein to KD value with respect to KRAS)” value in experiment [1] (class symbols) was “A (a compound having 10 or more and less than 20 is denoted as A)”. The “HRAS/KRAS (ratio of KD value with respect to GDP-bound HRAS wild-type protein to KD value with respect to KRAS)” value in experiment [2] (class symbols) is “A (a compound having 10 or more and less than 20 is denoted as A)”.
With `CC[C@H](C)[C@@H]1NC(=O)[C@H](CC(C)C)N(C)C(=O)C[C@@H](C(=O)N2CCOCC2)N(C)C(=O)[C@H](C2CCCC2)N(C)C(=O)C2(CCCC2)NC(=O)[C@@H]2C[C@H](OC)CN2C(=O)[C@H](CCc2cc(F)c(C(F)(F)F)c(F)c2)NC(=O)CN(C)C(=O)[C@H](Cc2ccc(C(F)(F)F)cc2)N2CCCCC[C@@H](C2=O)N(C)C(=O)CN(C)C1=O` [PP0495], the “NRAS/KRAS (ratio of KD value with respect to GDP-bound NRAS wild-type protein to KD value with respect to KRAS)” value in experiment [1] (SPR) is “A (a compound having 10 or more and less than 20 is denoted as A)”. In addition, the “HRAS/KRAS (ratio of KD value with respect to GDP-bound HRAS wild-type protein to KD value with respect to KRAS)” value in experiment [2] (SPR) is “B (a compound having 3 or more and less than 10 is denoted as B)”.
Turning to `CC[C@H](C)[C@@H]1NC(=O)[C@H](Cc2ccccc2)N(C)C(=O)C[C@@H](C(=O)N2CCOCC2)N(C)C(=O)[C@H](C2CCCC2)N(C)C(=O)C2(CCCC2)NC(=O)[C@@H]2CCCN2C(=O)[C@H](CCc2ccc(C(F)(F)F)c(Cl)c2)NC(=O)CN(C)C(=O)[C@H](Cc2ccc(F)cc2)N2CCCCC[C@@H](C2=O)N(C)C(=O)CN(C)C1=O` [PP0961], the “NRAS/KRAS (ratio of KD value with respect to NRAS to KD value with respect to KRAS)” value in experiment [1] (setting [5]) is “B (a compound having 3 or more and less than 10 is denoted as B)”. In addition, the “HRAS/KRAS (ratio of KD value with respect to HRAS to KD value with respect to KRAS)” value in experiment [2] (setting [6]) is “B (a compound having 3 or more and less than 10 is denoted as B)”.
